Among the test systems are NCI-H226; BT-549; HCC 2998; SR; COLO 205; MDA-MB-435; IGROV-1; TK-10; SF-539; OVCAR-8; HT-29; SNB-19; T47D; MDA-N; Hs-578T; HOP-92.
Assay in all cases: inhibition of tumour cell growth, NCI panel, 48 h

Experimental findings from ChEMBL document CHEMBL1201862, “PubChem BioAssay data set” (2004) are described below.

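Tested at 5 concentrations; 48 h exposure; 96-well plates; endpoints linearly interpolated, else capped at highest concentration. GI50: concentration for 50% inhibition of growth.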 The source made the active and inactive calls. Cut-off read from the data, not from the text of the source: active = GI50 up to about 1.1 µM and inactive = higher.

Take `CC1CNC(NS(=O)(=O)c2cc(C(=O)Nc3ccc(F)cc3)c(Cl)cc2S)=NN1` (stereo not given): the GI50 with NCI-H226 is 36.4 µM (inactive); in the assay on BT-549, > 100 µM (inactive); in the assay with HCC 2998 it was 40.5 µM (inactive); in the assay on SR it was 43.5 µM (inactive); in the assay on COLO 205, 62.4 µM (inactive); in the assay with MDA-MB-435, 35.7 µM (inactive). Moreover, the GI50 in the assay with IGROV-1 is 71 µM (inactive); in the assay with TK-10, > 100 µM (inactive); in the assay on SF-539, 39.5 µM (inactive); in the assay on OVCAR-8 it was 73.8 µM (inactive); with HT-29, 51.4 µM (inactive); in the assay with SNB-19 it was 87.1 µM (inactive).

As to `COc1cc(N/N=C/C#N)cc(OC)c1OC`, the GI50 with NCI-H226 was > 10 µM (inactive); in the assay on HCC 2998, > 10 µM (inactive); in the assay on SR, 2.96 µM (inactive); with COLO 205 it was 4.86 µM (inactive); with T47D, 4.65 µM (inactive); in the assay on MDA-N it was > 10 µM (inactive). The GI50 in the assay on MDA-MB-435, with Hs-578T, in the assay on IGROV-1, with TK-10, in the assay on SF-539 and in the assay with OVCAR-8 was > 10 µM (inactive) in each case. Besides, the GI50 in the assay with HT-29 and with SNB-19 was > 10 µM (inactive) in each case.

As for `COC(=O)c1ccc2c(c1)CCN2C(=O)c1cc2c(cc1Br)OCO2`, the GI50 in the assay on NCI-H226 was 0.277 µM (active); in the assay with BT-549 it was 7.18 µM (inactive); in the assay on HCC 2998, 0.989 µM (active); in the assay with SR, 0.0817 µM (active); in the assay on COLO 205 it was 0.406 µM (active); with HOP-92, 8.69 µM (inactive). The GI50 was 4.11 µM (inactive) with T47D; 0.0834 µM (active) in the assay on MDA-N; 0.151 µM (active) with MDA-MB-435; 0.658 µM (active) with Hs-578T; 0.614 µM (active) in the assay with IGROV-1; 2 µM (inactive) with TK-10. In addition, the GI50 with SF-539 was 0.148 µM (active); in the assay on OVCAR-8, 2.11 µM (inactive); with HT-29 it was 0.373 µM (active); with SNB-19, 0.439 µM (active).

Consider `COc1ccc2cc(/C=N/NC(=O)Nc3ccccc3)ccc2c1`, for which the GI50 in the assay on NCI-H226, in the assay with BT-549, with HCC 2998, in the assay with SR, in the assay with COLO 205 and in the assay on HOP-92 was > 100 µM (inactive) in each case. The GI50 in the assay on T47D, with MDA-N, in the assay on MDA-MB-435, in the assay on Hs-578T, with IGROV-1 and in the assay on TK-10 was > 100 µM (inactive) each time. In addition, the GI50 in the assay on OVCAR-8, in the assay with HT-29 and in the assay on SNB-19 was > 100 µM (inactive) in each case.

Regarding `COC(O)C(=O)c1ccc2c(c1)CC1(C2)Cc2cc3c(cc2C1=O)CCC3` (stereo not given), the GI50 was 19.5 µM (inactive) in the assay on NCI-H226; 17.4 µM (inactive) in the assay on BT-549; 19.1 µM (inactive) in the assay with HCC 2998; > 10 µM (inactive) with SR; 20 µM (inactive) in the assay with COLO 205; 19.2 µM (inactive) in the assay with T47D. Besides, the GI50 with MDA-N is 19.9 µM (inactive); with MDA-MB-435, 17.1 µM (inactive); with Hs-578T it was 20.5 µM (inactive); in the assay on IGROV-1, 16.1 µM (inactive); in the assay on TK-10 it was 21.6 µM (inactive); with SF-539 it was 18.1 µM (inactive). In addition, the GI50 with OVCAR-8 was > 10 µM (inactive); in the assay on HT-29 it was 20.1 µM (inactive); in the assay on SNB-19, 18.2 µM (inactive).

In the case of `CCCCCCCNC(P(=O)(O)O)P(=O)(O)O`, the GI50 was > 100 µM (inactive) with NCI-H226; > 100 µM (inactive) with BT-549; 56.2 µM (inactive) in the assay on HCC 2998; > 100 µM (inactive) in the assay on SR; > 100 µM (inactive) with COLO 205; > 100 µM (inactive) in the assay on HOP-92. Also, the GI50 is > 100 µM (inactive) in the assay with T47D; > 100 µM (inactive) with MDA-N; > 100 µM (inactive) in the assay on MDA-MB-435; 34 µM (inactive) in the assay with Hs-578T; > 100 µM (inactive) with IGROV-1; > 100 µM (inactive) with TK-10. Moreover, the GI50 in the assay on SF-539 was > 100 µM (inactive); in the assay on OVCAR-8, > 100 µM (inactive); with HT-29 it was 54.7 µM (inactive); in the assay on SNB-19 it was > 100 µM (inactive).

Consider `CN(C)CCCCN1CCc2c(n(C)c3ccccc23)C1=O`, for which the GI50 with NCI-H226 was > 59.7 µM (inactive); with BT-549, 45.4 µM (inactive); in the assay with COLO 205, 18.1 µM (inactive); with HOP-92, 42.6 µM (inactive); in the assay with T47D it was 25.5 µM (inactive); with MDA-N, 19.3 µM (inactive). Besides, the GI50 is 18.5 µM (inactive) in the assay with MDA-MB-435; 33 µM (inactive) in the assay with Hs-578T; 57.9 µM (inactive) in the assay on IGROV-1; > 80.4 µM (inactive) in the assay on OVCAR-8; 18.7 µM (inactive) with HT-29; > 74 µM (inactive) in the assay with SNB-19.

Consider `COc1cc(Nc2nc3ccc(C(F)(F)F)cc3nc2C(=O)O)cc(OC)c1OC`, for which the GI50 in the assay on NCI-H226 was 21.4 µM (inactive); with BT-549 it was 19.2 µM (inactive); in the assay on HCC 2998 it was 18.6 µM (inactive); in the assay on SR, 34.7 µM (inactive); in the assay on COLO 205 it was 19.8 µM (inactive); in the assay with T47D, 26.8 µM (inactive). Besides, the GI50 with MDA-N was 19.3 µM (inactive); in the assay on MDA-MB-435 it was 24.3 µM (inactive); with Hs-578T it was 16.9 µM (inactive); in the assay with IGROV-1, 25.6 µM (inactive); in the assay with TK-10 it was 22.8 µM (inactive); in the assay with SF-539, 31.4 µM (inactive). Also, the GI50 with OVCAR-8 was 27.7 µM (inactive); with HT-29, 27 µM (inactive); in the assay with SNB-19 it was 29.9 µM (inactive).

As to `COC(=O)C1=C(C(=O)OC)C(N(C)C)C(C(=O)OC)=C(C(=O)OC)S1`, the GI50 with NCI-H226, in the assay on BT-549, with HCC 2998, in the assay with SR, in the assay on COLO 205 and in the assay on T47D was > 100 µM (inactive) each time. The GI50 in the assay on MDA-N, in the assay with MDA-MB-435, with Hs-578T, in the assay on TK-10, with OVCAR-8 and with SNB-19 was > 100 µM (inactive) throughout.

Consider `Cc1ccc(-c2c(C#N)c(-c3ccc([N+](=O)[O-])cc3)c(C#N)c(=O)n2NS(=O)(=O)c2ccccc2)cc1`, for which the GI50 in the assay with NCI-H226 is 70.3 µM (inactive); in the assay with BT-549, 10.4 µM (inactive); in the assay with HCC 2998 it was 25.5 µM (inactive); with COLO 205 it was 53.1 µM (inactive); in the assay on HOP-92 it was 13.3 µM (inactive); in the assay with MDA-N, 84.3 µM (inactive). For the same molecule, the GI50 is 54.5 µM (inactive) in the assay on MDA-MB-435; 0.589 µM (active) in the assay on Hs-578T; 30.9 µM (inactive) in the assay with IGROV-1; 41.3 µM (inactive) with TK-10; 32.3 µM (inactive) in the assay with SF-539; 31.6 µM (inactive) in the assay with OVCAR-8. The GI50 is 41.8 µM (inactive) in the assay on HT-29 and 42.6 µM (inactive) in the assay on SNB-19.

On to `CCOC(=O)/C(=N/Nc1ccc(Cl)cc1)N1C(=S)N(C)N=C(C)C=C1S`, for which the GI50 was > 100 µM (inactive) in the assay with HCC 2998; > 100 µM (inactive) in the assay on SR; > 100 µM (inactive) with COLO 205; 50.7 µM (inactive) in the assay on HOP-92; 29.8 µM (inactive) with T47D; > 100 µM (inactive) with MDA-MB-435. Moreover, the GI50 in the assay with Hs-578T is 37.1 µM (inactive); in the assay on IGROV-1, > 100 µM (inactive); with TK-10, 30.5 µM (inactive); in the assay on SF-539, 57.1 µM (inactive); in the assay on OVCAR-8 it was 23.7 µM (inactive); with HT-29, > 100 µM (inactive). The GI50 with SNB-19 is 34.6 µM (inactive).

Turning to `COC(=O)c1c(-c2ccccc2)c2sc3ccccc3n2c1N`, the GI50 is > 100 µM (inactive) in the assay with NCI-H226; > 100 µM (inactive) in the assay on BT-549; 31.5 µM (inactive) in the assay on HCC 2998; 76.2 µM (inactive) with SR; 28.2 µM (inactive) with COLO 205; 29.1 µM (inactive) in the assay on HOP-92. Besides, the GI50 is 20.8 µM (inactive) in the assay on T47D; 50.4 µM (inactive) with MDA-N; 81.7 µM (inactive) in the assay on MDA-MB-435; 58.6 µM (inactive) in the assay with IGROV-1; 54.3 µM (inactive) in the assay on TK-10; 28.1 µM (inactive) with SF-539. The GI50 was 58.3 µM (inactive) in the assay on OVCAR-8, 49.7 µM (inactive) with HT-29 and 74.3 µM (inactive) in the assay on SNB-19.

Take `COC(=O)CC1(CNC(=O)OCc2ccccc2)OCCO1`: the GI50 with NCI-H226, with BT-549, in the assay on HCC 2998, with SR, with COLO 205 and with HOP-92 was > 100 µM (inactive) each time. The GI50 with MDA-N, in the assay with MDA-MB-435, with IGROV-1, in the assay on TK-10, in the assay with SF-539 and with OVCAR-8 was > 100 µM (inactive) throughout. Besides, in the assay on SNB-19, the GI50 was > 100 µM (inactive).

In the case of `Cc1ccc(S(=O)(=O)N/N=C/c2c(O)ccc3ccccc23)cc1`, the GI50 is 23.8 µM (inactive) with BT-549; 21.4 µM (inactive) in the assay on HCC 2998; 19.5 µM (inactive) in the assay on COLO 205; 31.8 µM (inactive) in the assay with T47D; 27.6 µM (inactive) in the assay with MDA-N; 23.7 µM (inactive) in the assay with MDA-MB-435. Besides, the GI50 in the assay with Hs-578T is 17.5 µM (inactive); in the assay on IGROV-1 it was 6.68 µM (inactive); with TK-10, 45.8 µM (inactive); with SF-539, 16.1 µM (inactive); with OVCAR-8, 30.4 µM (inactive); in the assay on HT-29 it was 32.9 µM (inactive). Besides, in the assay with SNB-19, the GI50 is 41.1 µM (inactive).
